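Cells were grown in 96-well plates and exposed to each compound for 48 hours at five concentrations; endpoints were interpolated linearly between bracketing concentrations, or set to the highest concentration if not reached. TGI: total growth inhibition.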

Experiment in all cases: NCI-60 cell line screen, 48 h
Assay [1] concerns NCI-H226 lung.
The subject of assay [2] is SF-539 CNS.
For assay [3], the system named is M19-MEL melanoma.
Assay [4] concerns SK-MEL-2 melanoma.
Assay [5] deals with SF-268 CNS.
The test system of assay [6] is SN12C renal.
In assay [7] the test system is KM20L2 colon.
Assay [8] concerns UO-31 renal.
The test system of assay [9] is EKVX NSCLC.
Assay [10] has as its system HOP-62 NSCLC.
In assay [11] the test system is MCF7 breast.

`CS(=O)(=O)CSCSSCS(C)(=O)=O`: the TGI in [1] was over 100 µM; in [2], 53.5 µM; in assay [3] it was over 100 µM; in assay [4], 46.7 µM; in assay [5] it was 77.5 µM; in assay [6], over 93.3 µM. The TGI in assay [7] was over 100 µM; in assay [8], over 58.3 µM; in [9], over 100 µM; in assay [10], over 100 µM.
Take `O=C(N/N=C(/CCN1CCCC1)CC(c1ccccc1)c1c(O)c2ccccc2oc1=O)c1ccncc1` (centres undefined): the TGI in assay [1], in [2], in [3], in assay [4], in assay [5] and in [6] was over 100 µM throughout. Further, the TGI in assay [7], in [8], in assay [9] and in assay [10] was over 100 µM each time.
`O=S(=O)(O)c1ccc(N=Nc2ccc(N=Nc3ccc(/C=C/c4ccc(N=[N+]([O-])c5ccc(/C=C/c6ccc(N=Nc7ccc(N=Nc8ccc(S(=O)(=O)O)cc8)cc7)cc6S(=O)(=O)O)c(S(=O)(=O)O)c5)cc4S(=O)(=O)O)c(S(=O)(=O)O)c3)cc2)cc1`: the TGI in assay [1], in [2], in [3], in [4], in assay [5] and in assay [6] was over 100 µM throughout. The TGI in assay [11], in assay [7], in assay [8], in assay [9] and in assay [10] was over 100 µM in each case.
For `COC(=O)[C@@H]1CCCCC[C@H]2C(CO)=C(C)C(=O)C12` (some centres undefined), the TGI in [1], in assay [2], in assay [3], in [4], in [5] and in [6] was over 100 µM throughout. Besides, the TGI in assay [7], in assay [8], in assay [9] and in assay [10] was over 100 µM in each case.
Consider `CCOC(=O)C1(C#N)C(c2ccccc2)CC(O)(c2ccc(Cl)cc2)C(C(=O)c2ccc(Cl)cc2)C1c1ccccc1` (centres undefined), for which the TGI in [1], in assay [3], in assay [4], in [5], in [6] and in assay [7] was over 100 µM each time. Also, the TGI in assay [8], in assay [9] and in assay [10] was over 100 µM in each case.
As to `COC(=O)C(=O)C(C(=O)C(=O)Nc1cccc(C(C)=O)c1)c1nc2ccccc2[nH]c1=O` (centres undefined), the TGI in assay [1], in assay [2], in assay [3], in assay [4], in assay [5] and in [7] was over 100 µM throughout. Moreover, the TGI in assay [8] and in assay [9] was over 100 µM throughout.
As to `CCOC(=O)c1s/c(=N\Nc2nc3ccccc3cc2C2OCCO2)n(Cc2ccccc2)c1C`, the TGI in [1], in [2], in assay [3], in [4], in assay [5] and in assay [6] was over 100 µM throughout. Besides, the TGI in assay [7], in assay [8], in assay [9] and in assay [10] was over 100 µM each time.
For the compound `CC(C)N1CC2CC(CN(C(=O)c3ccccc3)C2)C1`, the TGI in assay [1], in assay [2], in assay [3], in assay [4], in assay [5] and in assay [6] was over 100 µM in each case. The TGI in assay [7], in [8], in assay [9] and in assay [10] was over 100 µM each time.
In the case of `CN(C)CCNC(=O)c1cc(Cl)cc2ccc(-c3ccccc3)nc12`, the TGI in assay [1] turned out to be 7.02 µM; in assay [2], 9.18 µM; in assay [3], 11.4 µM; in assay [4], 17.1 µM; in [5] it was 19.2 µM; in assay [6], 12.9 µM. Moreover, the TGI came to 14.5 µM in assay [11]; 13.1 µM in assay [7]; 4.76 µM in assay [8]; 21.5 µM in assay [9]; 10.3 µM in assay [10].

The record behind these values is PubChem BioAssay (NCI).
